This passage reports IC50 results from patent US9493461B2, “Tetracyclic heterocycle compounds and methods of use thereof for the treatment of hepatitis C” (priority 2013, dated 2016).

The structures appear in SMILES notation.

The subject of experiment [1] is HCV replicon genotype 1a. The experiment can be described thus: HCV replicon assay, genotype 1a (cell ELISA for replicon-encoded NS3/4A). It is filed as cell-based, hepatitis C virus (HCV). The note with it: Hepatitis C virus, 96 h, read-out: 1a IC50 (nM), genotype 1a replicon cells, 96 hours incubation, NS3/4A ELISA readout, % of DMSO control. The method in brief:
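Stable G418-selected neomycin-resistant HCV replicon cells were plated with serially diluted compound without G418 and incubated 96 h. After washing and lysis, replicon RNA was measured indirectly by cell ELISA for replicon-encoded NS3/4A; IC50 from four-parameter fit relative to DMSO control.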

For experiment [2], the system named is HCV replicon genotype 1b. The experiment can be described thus: HCV replicon assay, genotype 1b (cell ELISA for replicon-encoded NS3/4A). It is filed as cell-based, hepatitis C virus (HCV). The note with it: Hepatitis C virus, 96 h, read-out: 1b IC50 (nM), genotype 1b replicon cells, 96 hours incubation, NS3/4A ELISA readout, % of DMSO control. The method in brief: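 Genotype 1b replicon cells (neomycin-selected, G418 removed for assay) incubated 96 h with compound dilution series. Replication measured by cell ELISA for replicon-encoded NS3/4A after lysis; IC50 from four-parameter fit relative to DMSO control.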

In the case of `CNC(=O)c1c(-c2ccc(F)cc2F)oc2cc(N(C)S(C)(=O)=O)c(-c3ccc4nc(CN5CC(C)(OC)C5)n5c6cccc(F)c6cc5c4n3)cc12` [Example 138], the IC50 in experiment [1] stood at 4.33 nM; in experiment [2], 4.59 nM.
As for `CNC(=O)c1c(-c2ccc(F)cc2F)oc2cc(N(C)S(C)(=O)=O)c(-c3ccc4nc(CN5CC(C)(C#N)C5)n5c6cccc(F)c6cc5c4n3)cc12` [Example 139], the IC50 in experiment [1] is 2.79 nM; in experiment [2], 3.16 nM.
For `CNC(=O)c1c(-c2ccc(F)cc2F)oc2cc(N(C)S(C)(=O)=O)c(-c3ccc4nc(CN5CC(C)(F)C5)n5c6cccc(F)c6cc5c4n3)cc12` [Example 140] the same measures were 2.95 nM and 4.31 nM.
On the same counts, the results for `CNC(=O)c1c(-c2ccc(F)cc2F)oc2cc(N(C)S(C)(=O)=O)c(-c3ccc4nc(CN5CCC(F)(C#N)CC5)n5c6cccc(F)c6cc5c4n3)cc12` [Example 141] are 5.48 nM and 5.99 nM.
On the same counts, the results for `CNC(=O)c1c(-c2ccc(F)cc2F)oc2cc(N(C)S(C)(=O)=O)c(-c3ccc4nc(CN5CC(C)(O)C5)n5c6cccc(F)c6cc5c4n3)cc12` [Example 142] are 3.05 nM and 2.85 nM.
`CNC(=O)c1c(-c2ccc(F)cc2F)oc2cc(N(C)S(C)(=O)=O)c(-c3ccc4nc(CN5CC(C(C)(C)O)C5)n5c6cccc(F)c6cc5c4n3)cc12` [Example 143]: the figures for the IC50 in experiment [1] and in experiment [2] were 5.17 nM and 6.21 nM, respectively.
On the same counts, the results for `CNC(=O)c1c(-c2ccc(F)cc2F)oc2cc(N(C)S(C)(=O)=O)c(-c3ccc4nc(CN5CCC[C@@H]5C(F)(F)F)n5c6cccc(F)c6cc5c4n3)cc12` [Example 144] are 13.3 nM and 14.6 nM.
In the case of `CNC(=O)c1c(-c2ccc(F)cc2F)oc2cc(N(C)S(C)(=O)=O)c(-c3ccc4nc(CN5CCC[C@H]5C(F)(F)F)n5c6cccc(F)c6cc5c4n3)cc12` [Example 145], the results for the IC50 in experiment [1] and in experiment [2] were 20 nM and 12.2 nM, respectively.
On to `CNC(=O)c1c(-c2ccc(F)cc2F)oc2cc(N(C)S(C)(=O)=O)c(-c3ccc4nc(CN5CC6CC5CO6)n5c6cccc(F)c6cc5c4n3)cc12` (centres unmarked) [Example 146], for which the IC50 in experiment [1] and in experiment [2] was 3.38 nM in each case.
Take `CNC(=O)c1c(-c2ccc(F)cc2F)oc2cc(N(C)S(C)(=O)=O)c(-c3ccc4nc(CN5CCN(C)CC5)n5c6cccc(F)c6cc5c4n3)cc12` [Example 147]: the IC50 is 3.48 nM in experiment [1] and 3.99 nM in experiment [2].
On the same counts, the results for `CNC(=O)c1c(-c2ccc(F)cc2F)oc2cc(N(C)S(C)(=O)=O)c(-c3ccc4nc(CN5CCN(C(C)=O)CC5)n5c6cccc(F)c6cc5c4n3)cc12` [Example 148] are 2.52 nM and 3.17 nM.
On the same counts, the results for `CNC(=O)c1c(-c2ccc(F)cc2F)oc2cc(N(C)S(C)(=O)=O)c(-c3ccc4nc(CN5CC(S(C)(=O)=O)C5)n5c6cccc(F)c6cc5c4n3)cc12` [Example 149] are 3.38 nM and 2.49 nM.
As to `CNC(=O)c1c(C2CC2)oc2cc(N(C)S(C)(=O)=O)c(-c3ccc4nc(CN5CC(F)C5)n5c6cccc(F)c6cc5c4n3)cc12` [Example 151], the IC50 in experiment [1] amounted to 2.66 nM; in experiment [2], 3.43 nM.
